Test results: patent EP3568131B1, “COMPOSITION COMPRISING 7-HYDROXYMATAIRESINOL FOR USE IN THE TREATMENT AND IN THE PREVENTION OF TRICHOLOGICAL DISEASES OF INFLAMMATORY AND/OR HORMONAL ORIGIN” (Sinerga Group S.r.l., priority 2017, dated 2018)
Where two headings read alike, the source gives them in different places.

Assays:
[1] = test system: human hair dermal papilla cells (HHDPC); test: MTT cell viability test after cell cycle synchronization (cell proliferation); type: cell-based; conditions: for viability at 200 µg/mL / viability at 1000 µg/mL: Homo sapiens, HHDPC, vs negative control; for viability at 200 µg/mL: 0.2 mg/ml of 5% glycerine solution; for viability at 1000 µg/mL: 1 mg/ml of 5% glycerine solution
Excerpt: (§1) The purpose of the test is quantitatively establishing the effects of 7-hydroxymatairesinol (HMR) on cell proliferation and on the synthesis of total proteins in human fibroblasts of the dermal papilla through the cell viability test (MTT test) after cycle synchronization, and establishing the protein dosage at different exposure times and at different sub-toxic sample dilutions.
(§2) Dermal papilla cells derived from human hair follicle (HHDPC: human hair dermal papilla cells) with fibroblastic morphology. The cells are cultured in DMEM containing 10% FBS and antibiotics.
(§3) The cells were seeded in 24-well plates and left to grow for 24h at 37°C and 5% CO2. Then they were deprived of the serum 6 hours before the experiment for cell cycle synchronization.
(§4) After 6 hours, fresh culture medium was added without serum but containing the sample to be tested in order to reach different final dilutions. The 5% glycerine-solubilized sample was dissolved in the culture medium. The test was carried out in triplicate.
(§5) After 24 and 48 hours of exposure, the MTT cell viability test and the total protein test using the Bradford method^1 were carried out on separate plates. Untreated cells were used as a negative control (CN), while cells treated with human insulin were used as a positive control (CP).
This method was originally developed by Mossman^2. After 24 and 48 hours of treatment, cell viability was evaluated by incubating the cells with MTT (3-[4,5-dimethylthiazol-2-yl]-2,5-diphenyl tetrazolium bromide) for 2 hours.
The precipitated formazan crystals were then extracted using isopropanol or DMSO and were spectrophotometrically quantified at 570 nm against 650 nm. The absorbance was read with a colorimeter (Tecan, model Sunrise remote) equipped with a plate reader subtracting the reading of the bottom.
The cell viability was expressed as a percentage according to the formula: % of cell viability = [OD(570nm−650nm)testedproduct/OD(570nm−650nm)CN] × 100 [formula] OD: Optical density

[2] = test system: human fibroblasts of the dermal papilla (HHDPC); test: Total protein dosage (Bradford method); type: cell-based; conditions: for activation at 1000 µg/mL: 1 mg/ml of 5% glycerine solution
Excerpt: as §1, §2, §3, §4, §5
The protein dosage was carried out according to the Bradford method. At the end of the treatment, the cells were washed with sterile PBS and lysed by treatment with purified water at 4°C. The colouring reagent was added to the lysate. A standard curve of albumin titrated to 20, 40, 80 and 100 µg/ml was prepared in a similar manner.
Then 200 µl of each sample, controls and standards, each in triplicate, were transferred to a 96-well plate. The reading was carried out with a colorimeter (Tecan, Sunrise) equipped with a plate reader, at 595 nm.
To quantify proteins, a standard albumin calibration curve was drawn and sample concentrations were calculated using the interpolation curve formula and relative absorbances. The averages of the individual data were then calculated, and for each sample the percentage of increase in protein synthesis was calculated, with respect to the negative control: % protein synthesis increment = (μg/mlsampleprotein/μg/mlCN)∗100 [formula]

[3] = MTT cytotoxicity test on reconstituted 3D epidermis; type: cell-based; conditions: human
Protocol: • Cytotoxicity through the MTT test at the end of incubation: cell survival test with 3D human epidermis reconstituted in vitro for the evaluation of the cytotoxic potential caused by the sample. • Inhibition of the release of cellular mediators of inflammation (IL-1α) after stress induced with SLS.
(§6) The cell model used for in vitro tests is represented by a three-dimensional system of reconstituted human epidermis in vitro.
(§7) This three-dimensional cellular model is made up of normal human primary keratinocytes, left to grow in vitro in order to simulate the multi-layered architecture of the human epidermis, with a well-differentiated stratum corneum. The model was purchased from CELLSYSTEMS (Troisdorf, batch 100-AE1818-1).
(§8) The skin irritation characterized by the release of IL-1α was caused by an epidermis pre-treatment for 60 minutes with SLS 0.25%.
(§9) Subsequently, 30µl of diluted sample were placed on two units and the exposure was extended for 24 hours at 37°C, 5% CO2. The sample was diluted to 0.25% in phosphate buffer.
(§10) As a negative control, two units of epidermis were treated with phosphate buffer (PBS), as a positive control two units were treated for 60' with 0.25% SLS. The test was carried out in duplicate.
At the end of the exposure, the sample and the references were removed by washing with phosphate buffer (PBS) and the cell viability was assessed.
The epidermis was incubated for 3h at 37°C with a lmg/ml solution of MTT (3- [4,5-dimethylthiazol-2-yl] -2,5-diphenyl tetrazolium bromide).
Then the solution was removed and replaced with isopropanol with subsequent 2 h incubation at room temperature.
Two aliquots of each sample were transferred to a 96-well plate for reading the absorbance, which was carried out at the wavelength of 570 nm, with a colorimeter (Tecan, model Sunrise remote) equipped with a plate reader.
The result was expressed as a cellular viability in percent according to the formula: % cell viability = [OD (570 nm) tested sample/OD (570 nm) CN] x 100

5α-reductase = test: Gene expression of 5α-reductase by qRT-PCR in testosterone-treated dermal papilla cells; type: cell-based; conditions: Homo sapiens, HHDPC, 48 h
Excerpt: Measurement of the gene expression level of 5α-reductase by means of Real Time Polymerase Chain Reaction (qRT-PCR) in human cells of the dermal papilla with and without treatment with the sample. The purpose of the test is to highlight and quantify changes in gene expression of 5α-reductase levels in cell cultures exposed to treatment with the tested substance compared to controls of the same untreated cells. This enzyme is expressed in skin melanocytes, fibroblasts and keratinocytes and turns testosterone into di-hydro-testosterone, a key metabolite implicated in various skin disorders such as acne vulgaris, hirsutism, seborrhoea and androgenetic alopecia. After birth, the 5α-reductase enzyme (type 1) is expressed in multiple body areas, including liver, skin, scalp and prostate. 5α-reductase (type 2) is expressed in prostate, seminal vesicles, epididymis, liver, and, to a lesser extent, scalp and skin. In this test, the cells are previously treated with testosterone to induce 5α-reductase production and are exposed to various test substances for 48 hours. A titrated extract of Serenoa repens, a known pharmacologically active compound used to treat benign prostatic hyperplasia, is used as a positive control. The analysis is carried out through RT-qPCR (Real Time Quantitative Polymerase Chain Reaction), a very sensitive method for the detection and quantification of messenger RNA coding for the protein in analysis and therefore for the corresponding gene activation. RT-qPCR measures the fluorescence emitted by the amplicons produced during each PCR cycle. A culture of human dermal papilla (HHDPC) cells was used. The cells were grown in MEM containing 10% FBS and antibiotics. The cells were seeded in 12-well plates for 24 hours. Then they were treated for 24 hours with 10 ng/ml of testosterone. After this step, fresh culture medium containing the sample to be tested was added. The sample was dissolved directly in the culture medium. The concentrations of the sample to be tested were selected based on preliminary cytotoxicity. […] After precipitation and centrifugation (30' at 12,000 rpm at 4°C), the RNA was resuspended in 20 µl of sterile water and its concentration was determined by spectrophotometry. […] Changes in the gene expression profile are analysed by RT-qPCR using Syber Green as a fluorescent molecule. […] The detection of the fluorescence emitted in each cycle allows monitoring the PCR reaction during the exponential phase, namely where the first significant increases in the PCR product are related to the initial amount of template. […] Subsequently, data can be expressed as "fold change", namely as a ratio with respect to control (a) or as a percentage with respect to control (b). […]

IL-1α = IL-1α release (ELISA) after SLS-induced stress on reconstituted epidermis; type: cell-based, human; conditions: for IL-1α % inhibition: vs positive control
Excerpt: The study concerns the in vitro evaluation of the anti-inflammatory potential of 7-hydroxymatairesinol against the inflammatory reaction induced by moderate irritants such as sodium lauryl sulphate (SLS), using a model of human skin cells grown in vitro in multilayer.
The inhibition of the cytokine IL-1α release caused by SLS is investigated by specific ELISA tests in the presence of the tested substance compared to untreated skin samples.
as §6, §7, §8, §9, §10
For the analysis of IL-1α, samples of culture medium were taken at 6 and 24 hours. The maintenance medium of the units treated with PBS and the medium of two non-irritated skin units treated only with the sample were taken as negative control, whereas the culture medium of two skin units treated with the 0.25% SLS solution was used as a positive control.
In this study, IL-1α was dosed using the direct-type ELISA (Enzyme-linked immunosorbent assay) method, i.e. the colour development was directly proportional to the amount of cytokines in the culture medium.
The reading was carried out at 450 nm. The sensitivity limit of this test was less than 10 pg/ml.
The IL-1α concentration was determined using a standard curve as a reference. The inhibition of IL1-α release was determined as: % IL-1α inhibition: 100- (pg/ml IL-1α released from the irritated sample/pg/ml IL-1α positive control)* 100

[4] = increase on fibroblasts of human dermal papilla compared to untreated cells
[5] = 6 h, sample 0.25% after SLS 0.25% pre-treatment
[6] = 24 h, sample 0.25% after SLS 0.25% pre-treatment

## COc1cc(C[C@H]2C(=O)OC[C@@H]2[C@H](O)c2ccc(O)c(OC)c2)ccc1O [HMR, 7-hydroxymatairesinol]
[1]; 24 h
  viability at 200 µg/mL: 110%
  viability at 1000 µg/mL: 99.7%
[1]; 48 h
  viability at 200 µg/mL: 119%
  viability at 1000 µg/mL: 105%
[1]; [4]
  cell proliferation: 19%
[2]; Homo sapiens, Fibroblast, HHDPC, 24 h, 0.2 mg/ml of 5% glycerine solution, increase vs negative control, read-out: % protein synthesis
  activation at 200 µg/mL: 10.4%
[2]; Homo sapiens, Fibroblast, HHDPC, 24 h, increase vs negative control, read-out: % protein synthesis
  activation at 1000 µg/mL: 24.5%
[2]; Homo sapiens, Fibroblast, HHDPC, 48 h, increase vs negative control, read-out: % protein synthesis
  activation at 1000 µg/mL: 16.8%
[2]; [4]
  protein synthesis: 24%
[3]; sample 0.25% in phosphate buffer alone, 24 hours exposure, read-out: % average cell viability (ds)
  viability at 24 h: 78.2%
[3]; sample 0.25%, 24 hours, after 60 minutes pre-treatment with SLS 0.25%, read-out: % average cell viability (ds)
  viability at 24 h: 55.9%
5α-reductase; 0.2 mg/ml of solution (stated as 0.01% HMR), vs untreated control, read-out: % 5a-reductase (ds) expression
  mrna remaining at 0.01 %: 90.9%
5α-reductase; 0.2 mg/ml of solution (stated as 0.01% HMR), vs untreated control, read-out: % reduction
  inhibition at 0.01 %: 9.07%
5α-reductase; 1 mg/ml of solution (stated as 0.05% HMR), 5α-reductase mRNA vs untreated control, read-out: % reduction
  inhibition at 0.05 %: 57.1%
5α-reductase; 1 mg/ml of solution (stated as 0.05% HMR), vs untreated control, read-out: % 5a-reductase (ds) expression
  mrna remaining at 0.05 %: 42.9%
IL-1α; [5]
  IL-1α Mean: 19.72 pg/mL
  IL-1α % inhibition: 13.94%
IL-1α; 6 h, sample 0.25% alone, non-irritated epidermis
  IL-1α Mean: 18.07 pg/mL
IL-1α; [6]
  IL-1α Mean: 97.70 pg/mL
  IL-1α % inhibition: 51.32%
IL-1α; 24 h, sample 0.25% alone, non-irritated epidermis
  IL-1α Mean: 26.40 pg/mL

## CCCCCCCCCCCCOS(=O)(=O)[O-].[Na+] [SLS, sodium lauryl sulphate, reference compound]
[3]; SLS 0.25% for 60 minutes, positive control, read-out: % average cell viability (ds)
  viability at 1 h: 50%
[3]; positive control (SLS 0.25%), test acceptability table
  viability: 50%
IL-1α; 6 h, SLS 0.25% for 60 minutes, positive control
  IL-1α Mean: 22.92 pg/mL
IL-1α; 24 h, SLS 0.25% for 60 minutes, positive control
  IL-1α Mean: 200.72 pg/mL
